Test results: US4172145A, “Benzo(b)furylacetic acid derivatives to reduce inflammation” (priority 1975, dated 1979)
Read-outs that look alike come from different tables or passages of the source.

Legend:
in vivo [1] = settings: rat, po
Method: A test group consisting of 10-15 rats (male Wistar strain; weight: 180-220 g) was used in this test. Each rat was fasted for 20 hours, but water was allowed ad libitum. The compounds shown in Table 5 were administered orally. After a 20-hour interval during which the rats were not fed but were allowed water, each rat was administered under ether anesthesia with 0.5 ml per 100 g body weight of a 5% solution of pontamine sky blue 6BX in saline (pH 7.2--adjusted with 0.5 N HCl) by intravenous injection. 15 minutes after administration each rat was killed. The stomach was removed and maintained in a 1% formalin solution. After about 2 hours, the stomach was opened along the greater curvature and the length of lesions (dark blue areas against pale blue background) in the glandular portion was measured under a dissecting microscope (10×) provided with a square grid. The sum of the lengths (mm) of lesions was used as ulcer index.

[2] = tested on: carrageenin-induced edema on the hind paw of rats; assay: Anti-edema effect on carrageenin-induced edema on the hind paw of rats (Carrageenin Edema Method); format: in vivo, rat (male Wistar strain); settings: rat, oral, 3 hours after carrageenin
Method: The anti-edema effect was determined according to the method of Yamazaki et al [Yamazaki, H., et al; Folia Pharmacologica Japonica, 63, 302 (1967)].
In this test, a group consisting of five rats (male Wistar strain: weight 100-120 g) was used for the test and control groups. The compounds shown in Table 2 were administered orally to the rats of the test group. After one hour, 0.1 ml of a 1% carrageenin solution (phlogistic agent) was further administered to each rat by subcutaneous injection in one hind paw. To each rat of the control group, 0.1 ml of a 1% carrageenin solution was also administered in a similar manner to that for test rats. 1, 3 and 5 hours after administration of the phlogistic agent, the swelling ratio was calculated by means of the following equation: […]
Test group [formula] in which b: swelling ratio
B: volume of a hind paw without administration of phlogistic agent
B': volume of a hind paw administered with phlogistic agent
Control group [formula] in which a: swelling ratio
A: volume of a hind paw without administration of phlogistic agent
A': volume of a hind paw administered with phlogistic agent
The anti-edema effect was expressed as the suppression ratio of the edema in comparison with the control group to which the test compound had not been administered. The suppression ratio of the edema was determined 3 hours after administration of the phlogistic agent and was calculated by means of the following equation: [formula] in which a and b are as hereinbefore defined.

[3] = tested on: acetic acid-induced writhing reactions in mice; assay: Analgesic activity in mice (AcOH Writhing Method); format: in vivo, mouse (male dd-strain); settings: mouse, oral; for ED50: read-out: Analgesic Effect (AcOH Writhing Method), ED50
Method: In this test, three groups, each consisting of 10 mice (male dd-strain; weight: 19-21 g) were used. The compounds shown in Table 3 were administered orally to the test mice. One hour after the administration, the mice were treated with 0.1 ml/10 g of 0.7% acetic acid solution in physiological saline by intraperitoneal injection according to the method of Koster et al [Koster, R., et al; Fed. Proc., 18, 412 (1959)]. Ten minutes after the treatment, the number of writhing reactions occurring in the mice was counted.

[4] = tested on: pain threshold of inflamed and not inflamed paws of rats; assay: Analgesic activity in rats (Randall-Selitto Method); format: in vivo, rat (male Wister strain); settings: Rattus norvegicus, po, read-out: Analgesic Coefficient; for change in vivo at 150 mg/kg: P.O. 150 mg/kg
Method: A group consisting of 6-7 rats (male Wister strain; weight: 100-120 g) was used for the test and control groups in this test. Each rat of both groups was treated with 0.1 ml of a 1% carrageenin solution as phlogistic agent by subcutaneous injection in one hind paw. 3 hours after the administration, pressure was applied to the treated paw of each rat by means of a pressing device (manufactured by Ugobasile S. A., Italy). The threshold of pain induced by press was measured with reference to the shriek and struggle according to the method of Randall and Selitto [Randall, L. O. and Selitto, J. J.; Arch, Int. Pharmocodyn., 111, 409 (1957)]. From each group 5 rats having a good response reaction, i.e. the pain threshold was not more than 70 g, were respectively selected. […] 1, 2 and 3 hours after administration, pressure was again applied to both the inflamed and not inflamed paws of the test rats and the pain threshold was measured. On the other hand, without the administration of the active compound, the pressure was applied to both the inflamed and not inflamed paws of the selected 5 rats of the control group and the pain threshold was measured. The inflamed paws of the test and control groups were compared with each other. Also the not inflamed paws of the both groups were compared with each other.
The analgesic coefficient was calculated by means of the following equation, and the larger analgesic coefficient the better analgesic activity. [formula] in which X: analgesic coefficient (%)
P1 : threshold (g) of the test rats administered with active compounds
P2 : threshold (g) of the control rats without administration of active compound

in vivo [5] = settings: oral, observed one week, Litchfield and Wilcoxon
Method: In this test, five groups, each consisting of 5 mice (male dd strain; weight: 19-21 g) and 5 rats (male Wistar strain; weight: 100-120 g) were used. […] The LD50 was calculated according to the method of Litchfield and Wilcoxon [Journal of Pharmacol. and Exper. Therap.

[6] = read-out: Anti-edema Effect, Suppression Ratio
[7] = 1 h before acetic acid, read-out: Analgesic Effect (AcOH Writhing Method), Suppression Ratio
[8] = mouse, read-out: Acute Toxicity (P.O.), LD50, Mouse
[9] = rat, read-out: Acute Toxicity (P.O.), LD50, Rat

SMILES	TD50 at 20 h (in vivo [1]) [mg/kg]	inhibition in vivo at 150 mg/kg [2, 6] [%]	inhibition in vivo at 150 mg/kg [3, 7] [%]	change in vivo at 150 mg/kg ([4]; 1 h, inflamed paw, 1 hr.) [%]	change in vivo at 150 mg/kg ([4]; 1 h, not inflamed paw, 1 hr.) [%]	change in vivo at 150 mg/kg ([4]; 2 h, inflamed paw, 2 hr.) [%]	change in vivo at 150 mg/kg ([4]; 2 h, not inflamed paw, 2 hr.) [%]	change in vivo at 150 mg/kg ([4]; 3 h, inflamed paw, 3 hr.) [%]	change in vivo at 150 mg/kg ([4]; 3 h, not inflamed paw, 3 hr.) [%]	inhibition in vivo at 75 mg/kg [2, 6] [%]	inhibition in vivo at 300 mg/kg [2, 6] [%]	ED50 [2] [mg/kg]	LD50 at 168 h (in vivo [5]; [8]) [mg/kg]	LD50 at 168 h (in vivo [5]; [9]) [mg/kg]	inhibition in vivo at 300 mg/kg [3, 7] [%]	ED50 [3] [mg/kg]	other results
CC(C)Cc1ccc(C(C)C(=O)O)cc1 (stereo not shown) [Ibuprofen, reference compound]	46	45.3	57.2	20.9	0.5	28.8	5.5	23.3	4.2								
CCCCC1C(=O)N(c2ccccc2)N(c2ccccc2)C1=O [Phenylbutazone, reference compound]	76																inhibition in vivo at 100 mg/kg ([2]; 100 mg/kg (footnote *; printed in 75 mg/kg column), read-out: Anti-edema Effect, Suppression Ratio): 42.6%; inhibition in vivo at 200 mg/kg ([2]; 200 mg/kg (footnote **; printed in 150 mg/kg column), read-out: Anti-edema Effect, Suppression Ratio): 53.5%; inhibition in vivo at 100 mg/kg ([3]; 100 mg/kg (footnote *; printed in 75 mg/kg column), read-out: Analgesic Effect (AcOH Writhing Method), Suppression Ratio): 20.8%; inhibition in vivo at 200 mg/kg ([3]; 200 mg/kg (footnote **; printed in 150 mg/kg column), read-out: Analgesic Effect (AcOH Writhing Method), Suppression Ratio): 28.2%; change in vivo at 100 mg/kg ([4]; 1 h, P.O. 100 mg/kg (** on upper line only), not inflamed paw, 1 hr.): 3.8%; change in vivo at 100 mg/kg ([4]; 1 h, P.O. 100 mg/kg, inflamed paw, 1 hr.): 20.7%; change in vivo at 100 mg/kg ([4]; 2 h, P.O. 100 mg/kg (** on upper line only), not inflamed paw, 2 hr.): 5.4%; change in vivo at 100 mg/kg ([4]; 2 h, P.O. 100 mg/kg, inflamed paw, 2 hr.): 23.2%; change in vivo at 100 mg/kg ([4]; 3 h, P.O. 100 mg/kg (** on upper line only), not inflamed paw, 3 hr.): 2%; change in vivo at 100 mg/kg ([4]; 3 h, P.O. 100 mg/kg, inflamed paw, 3 hr.): 27.7%
Cc1c(CC(=O)O)oc2ccccc12 [Test Compound 1, 3-methyl-2-benzo(b)furylacetic acid]		41.2	42.9	13.8	0.4	5.9	1.7	4.2	0	25.3	54.2	240	> 1100	> 300	70.9	170	inhibition in vivo at 75 mg/kg ([3]; 75 mg/kg, 1 h before acetic acid, read-out: Analgesic Effect (AcOH Writhing Method), Suppression Ratio): 21.7%
Cc1c(CC(=O)O)oc2ccc(Cl)cc12 [Test Compound 2, 5-chloro-3-methyl-2-benzo(b)furylacetic acid]	230	63.3	35.9	25.1	0.5	17.8	1.3	16.3	2.4	45.7	74.2	980	800	425	68.8	190	
COc1ccc2oc(CC(=O)O)c(C)c2c1 [Test Compound 3, 5-methoxy-3-methyl-2-benzo(b)furylacetic acid]	> 300	60.8	20.8	24.1	1.9	5.2	0	0	0	34.5	73.1	110	1110	> 1000	53.6	280	
Cc1c(CC(=O)O)oc2ccc(C(C)(C)C)cc12 [Test Compound 6, 5-tert-butyl-3-methyl-2-benzo(b)furylacetic acid]		39.9	23.7	19.5	6	17.8	0.8	14.4	1.3				> 1000	> 300			
Cc1c(CC(=O)O)oc2ccc(-c3ccccc3)cc12 [Test Compound 7, 5-phenyl-3-methyl-2-benzo(b)furylacetic acid]		63.9	20.9	37.2	8	23.3	2.4	11.3	4.7	52.7	73.3	70	500 to 1000	> 300	77.6		
Cc1c(CC(=O)O)oc2ccc(Cc3ccccc3)cc12 [Test Compound 8, 5-benzyl-3-methyl-2-benzo(b)furylacetic acid]		31.1	30.5	23.1	1.7	24.7	0.7	29.5	6.1				500 to 1000	> 300	55.6		
Cc1c(CC(=O)O)oc2ccc(C3CCCCC3)cc12 [Test Compound 9, 5-cyclohexyl-3-methyl-2-benzo(b)furylacetic acid]		28		0	0	2	0	32	17.2				> 1000	> 150			
